# Experiments:
# MRSA = assay: Inhibition of short-term bacterial growth (absorbance at 450 nm); format: cell-based; conditions: Staphylococcus aureus, 3.5 h incubation, Mueller-Hinton broth
# Protocol: (§1) Compound 3, being the best antibacterial derivative, was chosen for further evaluation on its antibacterial effect to inhibit short-term S. aureus and MRSA growth (Figure 2). This includes the GI50 of tiamulin fumarate for S. aureus and MRSA.
# (§2) The inhibition activities of test compounds were evaluated by measuring the absorbance of the bacterial suspension. In brief, inoculums were prepared from blood slants and adjusted to approximately 10^6 CFU/mL in Muellere-Hinton broth. The 0.0625, 0.125, 0.25, 0.5, 1, and 2 µM of tested compounds were prepared and added to the prepared inoculums. A sample of inoculum with no compound was used as control. The absorbance of bacterial suspension at 450 nm was measured using an UV spectrophotometer after 3.5 h of incubation, and the inhibition was calculated as 1 − (A^P/A^0), where A^p and A^0 are the absorbance of bacterial suspension in the presence and absence of compounds, respectively. The same procedure was independently repeated in triplicate.
# S. aureus = assay: as above; format: cell-based; conditions: Staphylococcus aureus, 3.5 h, read-out: GI50 S. aureus growth
# Protocol: as §1, §2
# S. vitulinus = assay: Oxford cup assay, zone of inhibition; format: cell-based, Staphylococcus vitulinus; conditions: Mammaliicoccus vitulinus
# Summary of the method: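 Zone diameters read after 24–36 h incubation at 37 °C. Test compounds were applied at 320 and 160 µg/mL in Oxford cups on nutrient agar seeded with saline inocula standardized by McFarland. Triplicate runs.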
# [1] = system: Staphylococcus warneri (S. warneri); assay: MIC testing, agar dilution method; format: cell-based; conditions: 36.5 °C, 24–48 h
# Summary of the method: (§3)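 Agar dilution per NCCLS: twofold serial dilutions (11 steps, down to 0.625 µg/mL) were mixed into Mueller-Hinton agar. 10 µL spots of ~10^5–10^6 CFU/mL inoculum were applied, and plates were incubated at 36.5 °C for 24–48 h in triplicate. MIC was the read-out, with tiamulin fumarate as reference.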
# [2] = system: Staphylococcus haemolyticus (S. haemolyticus); assay: MIC testing, agar dilution method; format: cell-based; conditions: 36.5 °C, 24–48 h
# Summary of the method: as §3
# [3] = system: Methicillin-resistant Staphylococcus aureus (MRSA); assay: MIC testing, agar dilution method; format: cell-based; conditions: 36.5 °C, 24–48 h
# Summary of the method: as §3
# [4] = system: Escherichia coli (E. coli); assay: MIC testing, agar dilution method; format: cell-based; conditions: 36.5 °C, 24–48 h
# Summary of the method: as §3
smiles,measurement,setting,value
"C=C[C@]1(C)C[C@@H](OC(=O)CSc2nc3ccc(N)cc3[nH]2)[C@]2(C)[C@H](C)CC[C@]3(CCC(=O)[C@H]32)[C@@H](C)[C@@H]1O [Compound 3, 14-O-((5-Amino-benzimidazole-2-yl)thioacetyl) Mutilin]",GI50,MRSA,175 nM
same,GI50,S. aureus,98.7 nM
same,zone of inhibition at 160 µg/mL,S. vitulinus; 160 µg/mL,25.5 mm
same,zone of inhibition at 320 µg/mL,S. vitulinus; 320 µg/mL,29.6 mm
same,MIC,[1],0.156 µg/mL
same,MIC,[2],0.156 µg/mL
same,MIC,[3],0.156 µg/mL
same,MIC,[4],10 µg/mL
